Experimental findings from ChEMBL document CHEMBL4828716, “Further investigation of harmicines as novel antiplasmodial agents: Synthesis, structure-activity relationship and insight into the mechanism of action” (Eur J Med Chem, 2021) are described below.

Active and inactive are the calls of the source. No cut-off for these calls is given here.

As a reminder, the IC50 is the concentration that inhibits the measured activity by half.

One data set relates to Plasmodium berghei. In words: Antiplasmodial activity against hepatic stage Plasmodium berghei infected in Huh-7 cells assessed as cell viability incubated for 1 hrs by bioluminescence assay. It is filed as functional, organism-based.
For a further data set, the system named is HepG2. The data set is described as follows: Cytotoxicity against human HepG2 cells assessed as cell growth inhibition incubated for 1 day by neutral red assay. It is filed as functional, cell-based. Particulars: HepG2, 24 h.
Data set [1] has as its system Plasmodium falciparum. In words: Antiplasmodial activity against chloroquine-resistant erythrocytic stage Plasmodium falciparum Dd2 assessed as inhibition of parasite growth incubated for 3 days by HRP2-ELISA. Format: functional, organism-based. Particulars: Dd2, 72 h. (An ELISA detects its analyte on a solid surface through an enzyme-linked reagent.)
The test system of data set [2] is Plasmodium falciparum. In words: Antiplasmodial activity against chloroquine-sensitive erythrocytic stage Plasmodium falciparum 3D7 assessed as inhibition of parasite growth incubated for 3 days by HRP2-ELISA. Particulars: 3D7, 72 h. Format: functional, organism-based.
Data set [3] can be described thus: Selectivity index, ratio of IC50 for human HepG2 cells to IC50 for […] erythrocytic stage Plasmodium falciparum 3D7. It is filed as toxicity. The following applies: read-out: Selectivity Index.

In the case of `Cc1nccc2c1[nH]c1ccc(OCCNC(=O)/C=C/c3cccc(F)c3)cc12`, the result in the data set with Plasmodium berghei was Active. The figures for the IC50 in the data set with HepG2, in the data set with Plasmodium falciparum [1] and with Plasmodium falciparum [2] were 37600 nM, 1300 nM and 1110 nM, respectively. The selectivity ratio in data set [3] amounted to 33.9.
In the case of `COc1ccc2c3ccnc(C)c3n(CCNC(=O)/C=C/c3cccc(C(F)(F)F)c3)c2c1`, the IC50 amounted to 1900 nM in the data set on Plasmodium berghei (Huh-7, 1 h); 66300 nM with HepG2; 330 nM in the data set on Plasmodium falciparum [1]; 60 nM with Plasmodium falciparum [2]. The selectivity ratio in data set [3] turned out to be 1110.
On to `Cc1nccc2c1[nH]c1ccc(OCCNC(=O)/C=C/c3cccc(Br)c3)cc12`, for which, in the data set on Plasmodium berghei, the outcome was Active. In addition, the IC50 was 7570 nM in the data set on HepG2, 630 nM in the data set on Plasmodium falciparum [1] and 190 nM with Plasmodium falciparum [2]. Further, in data set [3], the selectivity ratio worked out at 39.8.
